Values of other authors, collected in patent US9198935B2, “Hydrogen peroxide-based skin disinfectant” (VIROX TECHNOLOGIES INC., priority 2004, dated 2015).
Where two headings read alike, the source gives them in different places.

System: Staphylococcus aureus

## OO [hydrogen peroxide]
25% w/w aqueous solution of hydrogen peroxide
  time to achieve a greater than 6 log reduction in Staphylococcus aureus: 20 seconds
Solution containing 3% w/w hydrogen peroxide
  time to achieve a greater than 6 log reduction in Staphylococcus aureus: 20 minutes
